We go through three compounds from paper PMC12311865, “In Vitro Evaluation of the Potential Interactions of Zearalenone-14-sulfate and Zearalenone-14-glucuronide with Human Cytochrome P450 Enzymes, Organic Anion Transporting Polypeptides, and ATP-Binding Cassette Multidrug Transporters” (ACS Omega, 2025).

What all share (type): biochemical
Data set [1] deals with T1, BCRP (Homo sapiens, UniProt Q9UNQ0).
T1 construct: made in house; host or cells: Sf9 insect cells (baculovirus)
T1 sequence (Q9UNQ0 1-655): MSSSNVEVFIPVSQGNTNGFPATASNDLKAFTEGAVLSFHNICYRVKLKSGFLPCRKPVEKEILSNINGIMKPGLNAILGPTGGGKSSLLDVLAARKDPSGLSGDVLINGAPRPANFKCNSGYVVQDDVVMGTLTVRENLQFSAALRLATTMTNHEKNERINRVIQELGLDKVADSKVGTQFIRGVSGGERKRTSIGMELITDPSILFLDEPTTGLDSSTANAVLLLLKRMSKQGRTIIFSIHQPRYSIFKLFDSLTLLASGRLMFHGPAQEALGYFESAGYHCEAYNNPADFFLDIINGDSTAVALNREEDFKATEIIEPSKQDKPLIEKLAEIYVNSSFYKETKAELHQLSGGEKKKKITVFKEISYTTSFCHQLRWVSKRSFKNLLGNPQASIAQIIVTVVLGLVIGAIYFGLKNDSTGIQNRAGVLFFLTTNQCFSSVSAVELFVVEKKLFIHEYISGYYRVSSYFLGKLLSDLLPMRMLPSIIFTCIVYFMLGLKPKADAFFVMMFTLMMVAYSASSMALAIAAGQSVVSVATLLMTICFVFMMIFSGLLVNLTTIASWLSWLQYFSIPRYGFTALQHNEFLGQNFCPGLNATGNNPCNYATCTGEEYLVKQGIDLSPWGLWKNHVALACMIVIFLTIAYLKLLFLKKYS
Description: BCRP-mediated LY vesicular transport (Sf9 membrane vesicles). The following applies: for inhibition at 10 min, 50 μM: human, read-out: inhibition of BCRP-driven vesicular uptake of LY. The protocol: Experiments were performed in insect membrane vesicles, as described previously. Briefly, human MDR1, BCRP, and MRP2 were expressed in Sf9 insect cells by baculoviruses. On the third day of infection, cells were collected and membrane vesicles were obtained by mechanical disruption and differential centrifugation. To get full activity for BCRP, the cholesterol levels of the vesicles were adjusted to the level of mammalian membranes. Vesicles were stored at −80 °C, and the total protein content of the preparations was measured by the Lowry method (used as a reference for the quantity). Membrane vesicles (50 μg protein/sample) were incubated at 37 °C for 10 min (without or with 4 mM Mg-ATP) in 50 μL volume in the presence of transporter-specific fluorescent substrates: N-methylquinidine (NMQ; 5 μM) for MDR1, lucifer yellow (LY; 10 μM) for BCRP, and 5(6)-carboxy-2′,7′-dichlorofluorescein (CDCF; 5 μM) for MRP2. […] ATP-dependent (4 mM) uptake of fluorescent substrates was examined in the presence of 0–50 μM concentrations of mycotoxins (ZEN, Z14S, or Z14GA). […] After incubation, samples were rapidly filtered and washed on a filter plate (MSFBN6B10; Millipore, Burlington, MA). Accumulated substrates in vesicles were solved back from the filter with 100 μL of SDS (10%) and centrifuged into another plate. A 100 μL volume of fluorescence stabilizer was added to the samples (DMSO for LY, 0.1 M H2SO4 for NMQ, and 0.1 M NaOH for CDCF). Fluorescence of samples was measured by plate readers (Victor X3 and Enspire PerkinElmer; Waltham, MA) at appropriate wavelengths (filters in the Victor X3 reader were 405/535 nm for LY and 492/635 nm for CDCF; while in the Enspire reader, NMQ was measured at 360/430 nm excitation/emission wavelengths). ABC-related transport was calculated by subtracting passive uptake measured without Mg-ATP from values measured in the presence of Mg-ATP.

The target in data set [2] is T1, BCRP. The experiment in a line: BCRP vanadate-sensitive ATPase activity assay. The following applies: for effect on BCRP-dependent ATPase activity: up to 50 μM, Z14S effect seen even at 2 μM. The protocol: (§1) ATPase activity was determined in Sf9 membrane vesicles containing human MDR1 or human BCRP prepared as described. − Appropriate amounts of vesicles (10 μg/50 μL) were used in the assays. Membrane vesicles were incubated with Mg-ATP (3 mM) for 25 min at 37 °C. Effects of the test compounds were examined up to 50 μM concentrations. […] ABC transporter function was determined as vanadate-sensitive ATPase activity. Liberated inorganic phosphate (Pi) was measured by a colorimetric reaction, as it has been reported. After 25 min, absorbance values were determined at 660 nm by a VictorX plate reader (PerkinElmer).

The next data set addresses T2, MDR1 (Homo sapiens, UniProt P08183).
T2 construct: made in house; host or cells: Sf9 insect cells (baculovirus)
The experiment in a line: MDR1 vanadate-sensitive ATPase activity assay. The conditions noted are these: up to 50 μM; Sf9 membrane vesicles. How it is done:
as §1

The next data set concerns the target T3, CYP2C9 (Homo sapiens, UniProt P11712).
T3 construct: purchased Merck
The experiment in a line: in vitro. The conditions noted are these: diclofenac 5 μM, 120 min. The protocol: Inhibitory actions of ZEN conjugates on CYP2C9 and CYP3A4 enzymes were examined employing CypExpress Cytochrome P450 human kits. , Briefly, incubates (200 μL) contained the substrate (5 μM; diclofenac for CYP2C9 and testosterone for CYP3A4), the CypExpress reagent (6 mg/mL of CYP2C9 kit or 15 mg/mL of CYP3A4 kit; also including the glucose-6-phosphate dehydrogenase enzyme), and the test compounds (each 20 μM) in 0.05 M potassium phosphate buffer (pH 7.5). CYP3A4 assay was supplemented with additional G6P and NADP^+ (both 400 μM). Enzyme assays were started with the addition of the enzyme. After 120 min (CYP2C9) or 180 min (CYP3A4) incubation at 700 rpm and 30 °C in a thermomixer, the reaction was stopped with 100 μL of ice-cold methanol. Then, the samples were centrifuged for 10 min at 14,000g and room temperature. The supernatants were gently removed and directly analyzed by HPLC (see Section ).
Diclofenac and 4′-hydroxydiclofenac (CYP2C9 assay) were quantified using the previously reported HPLC-UV assay, , without modification. Briefly, the isocratic elution, with 1.0 mL/min flow rate, was performed with orthophosphoric acid (6 mM) and acetonitrile (48:52 v/v %) mobile phase, applying a Security Guard (C8, 4.0 × 3.0 mm; Phenomenex, Torrance, CA) precolumn and a Mediterranea Sea8 (C8, 150 × 4.6 mm, 5 μm; Teknokroma, Barcelona, Spain) analytical column at room temperature (injected volume: 20 μL). Diclofenac and 4′-hydroxydiclofenac were detected at 275 nm.

T2 sequence (P08183 whole entry): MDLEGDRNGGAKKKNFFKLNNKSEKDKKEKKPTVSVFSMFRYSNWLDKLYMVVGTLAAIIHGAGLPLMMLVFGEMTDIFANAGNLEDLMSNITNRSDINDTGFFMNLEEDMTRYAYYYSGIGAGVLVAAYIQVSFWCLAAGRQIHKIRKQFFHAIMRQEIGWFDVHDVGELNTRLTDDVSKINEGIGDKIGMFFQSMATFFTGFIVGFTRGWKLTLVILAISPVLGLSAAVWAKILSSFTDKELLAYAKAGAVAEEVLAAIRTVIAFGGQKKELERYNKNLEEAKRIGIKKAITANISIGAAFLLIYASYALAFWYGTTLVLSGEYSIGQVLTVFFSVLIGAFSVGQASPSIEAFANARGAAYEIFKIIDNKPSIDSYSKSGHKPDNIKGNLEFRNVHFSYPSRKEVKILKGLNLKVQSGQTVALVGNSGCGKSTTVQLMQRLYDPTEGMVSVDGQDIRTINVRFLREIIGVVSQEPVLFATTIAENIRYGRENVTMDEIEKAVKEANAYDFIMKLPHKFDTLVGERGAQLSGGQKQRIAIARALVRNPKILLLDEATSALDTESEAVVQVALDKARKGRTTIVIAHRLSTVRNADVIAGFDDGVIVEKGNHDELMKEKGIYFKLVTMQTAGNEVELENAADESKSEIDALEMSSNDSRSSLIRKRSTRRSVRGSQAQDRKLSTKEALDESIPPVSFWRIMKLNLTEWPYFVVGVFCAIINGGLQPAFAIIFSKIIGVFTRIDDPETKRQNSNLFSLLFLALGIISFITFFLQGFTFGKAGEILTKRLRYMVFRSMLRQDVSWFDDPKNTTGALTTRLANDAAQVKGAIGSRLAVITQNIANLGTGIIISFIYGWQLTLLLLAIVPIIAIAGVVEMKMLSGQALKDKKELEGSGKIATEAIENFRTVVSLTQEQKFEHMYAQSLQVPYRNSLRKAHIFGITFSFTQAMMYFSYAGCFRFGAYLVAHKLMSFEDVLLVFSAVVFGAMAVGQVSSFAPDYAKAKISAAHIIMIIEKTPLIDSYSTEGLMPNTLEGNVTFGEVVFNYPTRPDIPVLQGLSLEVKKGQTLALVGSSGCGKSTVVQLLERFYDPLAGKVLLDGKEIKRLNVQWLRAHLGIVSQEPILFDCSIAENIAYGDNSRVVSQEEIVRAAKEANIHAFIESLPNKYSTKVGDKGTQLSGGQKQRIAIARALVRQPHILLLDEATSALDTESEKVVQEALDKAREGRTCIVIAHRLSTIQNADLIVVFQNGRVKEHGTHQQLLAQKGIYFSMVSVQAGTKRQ
T3 sequence (P11712 whole entry): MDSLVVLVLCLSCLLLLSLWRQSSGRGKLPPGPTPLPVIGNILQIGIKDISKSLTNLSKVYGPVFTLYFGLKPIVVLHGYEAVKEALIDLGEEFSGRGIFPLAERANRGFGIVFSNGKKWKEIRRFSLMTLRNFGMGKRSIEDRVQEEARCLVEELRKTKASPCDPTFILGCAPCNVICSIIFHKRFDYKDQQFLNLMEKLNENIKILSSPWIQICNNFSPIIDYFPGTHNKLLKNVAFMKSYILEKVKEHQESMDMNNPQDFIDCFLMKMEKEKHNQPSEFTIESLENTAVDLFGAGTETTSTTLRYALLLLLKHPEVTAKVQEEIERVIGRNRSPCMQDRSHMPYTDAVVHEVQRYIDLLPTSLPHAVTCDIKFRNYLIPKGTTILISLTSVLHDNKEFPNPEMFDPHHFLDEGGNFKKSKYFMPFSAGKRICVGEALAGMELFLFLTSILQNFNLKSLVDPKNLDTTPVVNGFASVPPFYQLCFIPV

With `C[C@H]1CCCC(=O)CCC/C=C/c2cc(O)cc(O)c2C(=O)O1` [ZEN, Zearalenone], 2.6 µM corresponded to half-maximal inhibition on BCRP [1] (IC50). For the same compound, the inhibition (in general, the percentage by which the read-out fell short of the control) at 10 min, 50 μM at BCRP [1] (LY 10 μM) is above 90%. The “effect on basal ATPase activity of BCRP” value on BCRP [2] (50 μM) is on record as “slight inhibition”. For the same compound, the “effect on BCRP-dependent ATPase activity” value on BCRP [2] is on record as “no relevant impact”. In addition, the “effect on MDR1 ATPase activity” value on MDR1 is listed as “considerable elevation even at 5 μM concentration”.
For `C[C@H]1CCCC(=O)CCC/C=C/c2cc(O[C@@H]3O[C@H](C(=O)O)[C@@H](O)[C@H](O)[C@H]3O)cc(O)c2C(=O)O1` [Z14GA, Zearalenone-14-glucuronide], on BCRP [1] (0–50 μM, LY 10 μM), the “effect on BCRP-driven vesicular uptake of LY” value is recorded as “weak inhibitory action”. The “effect on BCRP-dependent ATPase activity” value on BCRP [2] is “did not affect”. Also, the “inhibition of CYP2C9 (decrease in metabolite formation)” value at CYP2C9 (each 20 μM) is listed as “no effects”. Also, the “effect on MDR1 ATPase activity” value at MDR1 is “did not modify”.
On to `C[C@H]1CCCC(=O)CCC/C=C/c2cc(OS(=O)(=O)O)cc(O)c2C(=O)O1` [Z14S, zearalenone-14-sulfate], for which inhibition against BCRP [1] was half-maximal at 4.4 µM (IC50). The inhibition at 10 min, 50 μM at BCRP [1] (LY 10 μM) is above 90%. Moreover, the “effect on BCRP-dependent ATPase activity” value on BCRP [2] was “moderate increase”. Also, at CYP2C9 (human, pH 7.5, each 20 μM, read-out: inhibition of CYP2C9 (decrease in metabolite formation)), the inhibition at 120 min, 20 μM is around 45%. In addition, the “effect on MDR1 ATPase activity” value on MDR1 is “did not modify”.
